According to US6844435B2, “Heterocyclic compounds useful as inhibitors of tyrosine kinases” (Boehringer Ingelheim Pharmaceuticals, Inc., priority 2000, dated 2005):

| melting point | Compound |
| --- | --- |
| > 300 °C | Cn1c(Nc2c(Cl)cccc2Cl)nc2ccc3nc(C4=CC5C=CC4N5)[nH]c(=O)c3c21 (stereo not drawn) |
| 315 to 317 °C (dec.) | C/C(=C\c1cc([N+](=O)[O-])cc([N+](=O)[O-])c1)c1nc2ccc3nc(Nc4c(Cl)cccc4Cl)n(C)c3c2c(=O)[nH]1 |
| > 300 °C | CCn1c(Nc2c(Cl)cccc2Cl)nc2ccc3nc[nH]c(=O)c3c21 [Example 5, 2-(2,6-Dichlorophenylamino)-1-ethyl-1,8-dihydro-9H-imidazo[4,5-f]quinazoline-9-one] |
| > 300 °C | Cn1c(Nc2c(Cl)cccc2Cl)nc2ccc3nc(-c4ccccc4)[nH]c(=O)c3c21 [Example 7, 2-(2,6-Dichlorophenylamino)-1-methyl-7-phenyl-1,8-dihydro-9H-imidazo[4,5-f]quinazoline-9-one] |
| > 300 °C | Cn1c(Nc2c(Cl)cccc2Cl)nc2ccc3nc(-c4cccc([N+](=O)[O-])c4)[nH]c(=O)c3c21 [Example 18] |
| 251 °C (dec.) | CCNC(=O)Nc1cccc(-c2nc3ccc4nc(Nc5c(Cl)cccc5Cl)n(C)c4c3c(=O)[nH]2)c1 [Example 20] |
| > 300 °C | Cn1c(Nc2c(Cl)cccc2Cl)nc2ccc3nc(-c4cccs4)[nH]c(=O)c3c21 [Example 22] |
| 280 °C | Cn1c(Nc2c(Cl)cccc2Cl)nc2ccc3nc(-c4scc(S(C)(=O)=O)c4Cl)[nH]c(=O)c3c21 [Example 23] |
| > 300 °C | Cn1c(Nc2c(Cl)cccc2Cl)nc2ccc3nc(-c4csc(-c5cccc([N+](=O)[O-])c5)n4)[nH]c(=O)c3c21 [Example 24] |
| > 300 °C | Cn1c(Nc2c(Cl)cccc2Cl)nc2ccc3nc(-c4ncc[nH]4)[nH]c(=O)c3c21 [Example 25] |
| > 300 °C | Cn1c(Nc2c(Cl)cccc2Cl)nc2ccc3nc(C(N)=O)[nH]c(=O)c3c21 [Example 27] |
| > 300 °C | Cn1c(Nc2c(Cl)cccc2Cl)nc2ccc3nc(-c4cccnc4)[nH]c(=O)c3c21 [Example 30] |
| 185 to 192 °C | Cn1c(Nc2c(Cl)cccc2Cl)nc2ccc3nc(Nc4ccccc4)[nH]c(=O)c3c21 [Example 31] |
| > 300 °C | C=C(C)c1nc2ccc3nc(Nc4c(Cl)cccc4Cl)n(C)c3c2c(=O)[nH]1 [Example 33] |
| 240 °C (dec.) | Cn1c(Nc2c(Cl)cccc2Cl)nc2ccc3nc(-c4csc(-c5cccc(N)c5)n4)[nH]c(=O)c3c21 [Example 36] |
| 275 to 277 °C | CCOC(=O)c1nc2ccc3nc(Nc4c(Cl)cccc4Cl)n(C)c3c2c(=O)[nH]1 [Example 37] |
| > 300 °C | Cc1ccccc1-c1nc2ccc3nc(Nc4c(Cl)cccc4Cl)n(C)c3c2c(=O)[nH]1 [Example 38] |
| 258 °C (dec.) | Cn1c(Nc2c(Cl)cccc2Cl)nc2ccc3nc(CC4=CCCC4)[nH]c(=O)c3c21 [Example 40] |
| 265 to 268 °C | Cn1c(Nc2c(Cl)cccc2Cl)nc2ccc3nc(C(=O)NCCO)[nH]c(=O)c3c21 [Example 41] |
| > 300 °C | Cn1c(Nc2c(Cl)cccc2Cl)nc2ccc3nc(C(=O)O)[nH]c(=O)c3c21 [Example 42] |
| 278 °C (dec.) | C/C=C(\C)c1nc2ccc3nc(Nc4c(Cl)cccc4Cl)n(C)c3c2c(=O)[nH]1 [Example 45] |
| 289 to 292 °C | Cn1c(Nc2c(Cl)cccc2Cl)nc2ccc3nc(-c4ccc(-c5ccccc5[N+](=O)[O-])o4)[nH]c(=O)c3c21 [Example 55] |

Further lines, the compound ahead of its results:

| Compound | melting point |
| --- | --- |
| Cn1c(Nc2c(Cl)cccc2Cl)nc2ccc3nc(C4=CC5C=CC4N5C(=O)OCc4ccccc4)[nH]c(=O)c3c21 (stereo not drawn) | > 275 °C (dec.) |
| Cn1c(Nc2c(Cl)cccc2Cl)nc2ccc3nc(-c4ccoc4)[nH]c(=O)c3c21 [Example 8, 2-(2,6-Dichlorophenylamino)-1-methyl-7-furan-3-yl-1,8-dihydro-9H-imidazo[4,5-f]quinazoline-9-one] | > 300 °C |
| Cn1c(Nc2c(Cl)cccc2Cl)nc2ccc3nc(-c4cccc(N)c4)[nH]c(=O)c3c21 [Example 19] | 200 °C (dec.) |
| C=Cc1nc2ccc3nc(Nc4c(Cl)cccc4Cl)n(C)c3c2c(=O)[nH]1 [Example 21] | 278 to 284 °C (dec.) |
| Cn1c(Nc2c(Cl)cccc2Cl)nc2ccc3nc(-c4cnc(-c5ccccc5)o4)[nH]c(=O)c3c21 [Example 26] | > 290 °C |
| CC(C)=Cc1nc2ccc3nc(Nc4c(Cl)cccc4Cl)n(C)c3c2c(=O)[nH]1 [Example 28] | > 300 °C |
| Cn1c(Nc2c(Cl)cccc2Cl)nc2ccc3nc(-c4ccccn4)[nH]c(=O)c3c21 [Example 29] | > 300 °C |
| Cn1c(Nc2c(Cl)cccc2Cl)nc2ccc3nc(-c4nc(-c5ccc(OC(F)(F)F)cc5)no4)[nH]c(=O)c3c21 [Example 32] | > 300 °C |
| Cn1c(Nc2c(Cl)cccc2Cl)nc2ccc3nc(Cc4ccccc4)[nH]c(=O)c3c21 [Example 34] | > 250 °C (dec.) |
| Cn1c(Nc2c(Cl)cccc2Cl)nc2ccc3nc(C4=CCCC4)[nH]c(=O)c3c21 [Example 35] | 295 °C (dec.) |
| Cn1c(Nc2c(Cl)cccc2Cl)nc2ccc3nc(-c4cc5ccccc5o4)[nH]c(=O)c3c21 [Example 39] | > 300 °C |
| Cn1c(Nc2c(Cl)cccc2Cl)nc2ccc3nc(-c4nc5ccccc5[nH]4)[nH]c(=O)c3c21 [Example 43] | > 300 °C |
| Cc1ncc(-c2nc3ccc4nc(Nc5c(Cl)cccc5Cl)n(C)c4c3c(=O)[nH]2)o1 [Example 46] | > 300 °C |
| Cn1c(Nc2c(Cl)cccc2Cl)nc2ccc3nc(C(=O)c4c[nH]c5ccccc45)[nH]c(=O)c3c21 [Example 47] | > 300 °C |
| Cn1c(Nc2c(Cl)cccc2Cl)nc2ccc3nc(C4=CC(N5CCNCC5)CC4)[nH]c(=O)c3c21 (stereo not drawn) [Example 48] | 173 to 174 °C |
| CC(C)c1nc2ccc3nc(Nc4c(Cl)cccc4Cl)n(C)c3c2c(=O)[nH]1 [Example 49] | 279 °C (dec.) |
| Cn1c(Nc2c(Cl)cccc2Cl)nc2ccc3nc(C4CCCC4)[nH]c(=O)c3c21 [Example 50] | 283 to 284 °C |
| Cn1c(Nc2c(Cl)cccc2Cl)nc2ccc3nc(C(=O)N4CCCC4)[nH]c(=O)c3c21 [Example 52] | 295 °C (dec.) |
| CCc1nc2ccc3nc(Nc4c(Cl)cccc4Cl)n(C)c3c2c(=O)[nH]1 [Example 53] | > 300 °C |
| CN1CCC=C(c2nc3ccc4nc(Nc5c(Cl)cccc5Cl)n(C)c4c3c(=O)[nH]2)C1 [Example 54] | 255 °C |
| Cn1c(Nc2c(Cl)cccc2Cl)nc2ccc3nc(-c4ccc(Br)o4)[nH]c(=O)c3c21 [Example 57] | 280 to 283 °C |
| Cc1ccoc1-c1nc2ccc3nc(Nc4c(Cl)cccc4Cl)n(C)c3c2c(=O)[nH]1 [Example 58] | 304 to 310 °C (dec.) |
| Cn1c(Nc2c(Cl)cccc2Cl)nc2ccc3nc(C4CC4)[nH]c(=O)c3c21 [Example 59] | > 300 °C |
| Cn1c(Nc2c(Cl)cccc2Cl)nc2ccc3nc(C(=O)c4ccccc4)[nH]c(=O)c3c21 [Example 60] | 280 °C (dec.) |
| CN1CCN(S(=O)(=O)c2cccc(-c3nc4ccc5nc(Nc6c(Cl)cccc6Cl)n(C)c5c4c(=O)[nH]3)c2)CC1 [Example 61] | 215 °C (dec.) |
| CNc1nc2ccc3nc(Nc4c(Cl)cccc4Cl)n(C)c3c2c(=O)[nH]1 [Example 62] | 198 to 204 °C |
